Reference: patent publication EP0654042B1, “AMYLIN MUTEINS” (PFIZER INC., priority 1992, dated 1998)
Bridge positions count the residues as written; N and C are the ends. Ends that are not written are not given here.

How the values were obtained:
[1] = test system: muscle or muscle cells; test: suppression of insulin action (insulin action suppressing activity); conditions: qualitative statement; no data or test conditions printed
Source text: The phrase "insulin action suppressing activity", as used throughout this Specification and the appendant claims, includes, but is not limited to, the ability of a polypeptide of this invention to suppress the effect which insulin has upon muscle or muscle cells. By way of example and not of limitation, the polypeptides of this invention suppress insulin-stimulated glycogen synthesis in muscle or muscle cells.

[2] = test system: isolated soleus muscle; conditions: Leighton et al. 1988, Cooper et al. 1988; cited from earlier work

Row | Substance | suppress insulin action [1] | insulin-stimulated glycogen synthesis [2]
1 | Bolton-Hunter derivative of amylin: Bolton-Hunter derivative of amylin of the drawn formula wherein W is SEQUENCE ID NO:1 (KCNTATCATQRLANFLVHSSNNFGAILSSTNVGSNTY; not fully specified (C-terminus, bridges); cysteine pairing not given here; also: Bolton-Hunter reagent derivative, attachment site not given here; UniProt P10997 34-70, looked up) | will not suppress insulin action | 
2 | amylin: 37 amino acid polypeptide with a disulfide bond between Cys 2 and 7; secretory product of pancreatic β cells (KCNTATCATQRLANFLVHSSNNFGAILSSTNVGSNTY; disulfide 2-7; not fully specified (C-terminus); UniProt P10997 34-70, looked up) |  | suppresses insulin-stimulated glycogen synthesis
